The source of these data is US20040249128A1, “Molecules for disease detection and treatment” (priority 2001, published 2004).

In one test the test system is endothelial cell lines. The test can be described thus: Microarray expression analysis of endothelial cell lines treated with TNF-α. The test is classed as cell-based, human. The conditions noted are these: 10 ng/ml TNF-α, within four hours; in five out of the eight endothelial cell lines.
Test [1] concerns human fibroblastic IMR-90 cells. The conditions noted are these: cited from earlier work.
Test [2] concerns bovine aortic endothelial cells. The settings on record: confluent cells; cited from earlier work.
Test [3] relates to vascular smooth muscle cells (SMCs). The conditions noted are these: cited from earlier work.
In test [4] the test system is human umbilical vein endothelial cells (HVECs). The settings on record: TNF-α treated compared with untreated cells; cited from earlier work.
Another test relates to dendritic cells. In words: Microarray expression analysis during differentiation and maturation of dendritic cells. The test is classed as cell-based, human. The settings on record: maturation of dendritic cells induced by TNF-alpha, versus immature dendritic cells (Lci). As for the experimental part:
Human CD34 positive precursor cells were isolated by positive immunomagnetic selection from the leukapheresis of normal volunteer donors who had undergone G-CSF-induced stem cell mobilization. The purified CD34+ cells were cultured in vitro for 10 days in the presence of recombinant GM-CSF, Stem Cell Factor, TNF-alpha, TGF-beta1, and Flt3-Ligand. The resulting expanded cell population was enriched for cell cluster-forming immature dendritic cells (Lci) by sedimentation over a 7.5% BSA column at 1 g for 30 min. Immature dendritic cells were cultured for two additional days in the presence of the same combination of cytokines supplemented with LPS, IL-1beta, TNF-alpha, or double strand RNA. In addition, cluster-forming immature dendritic cells were disrupted by vigorous pipetting and cultured for two additional days in the presence of the same combination of cytokines without addition of any additional factor. The partially mature dendritic cells derived by mechanical disruption of cell clusters are characterized by the presence of intracellular rod-shaped structures called Birbeck's Granules. The dendritic cell population produced using this method was called Birbeck's Granule-positive dendritic cells, or BG. […]

For test [5] the following is noted: intranasal; greater than those produced by hydrocortisone; cited from earlier work.

Consider TNF-α, for which the “expression of SEQ ID NO:58” value in the test with endothelial cell lines is recorded as “downregulated by at least two-fold”. The “suppression of [3H]proline incorporation” value in test [1] and in test [2] was “not observed” each time. The “relative proportion of collagen types IV and V” value in test [3] is recorded as “decreases”. The “incorporation of [3H]proline into collagenase-digestible proteins (CDP) and noncollagenous proteins (NCP)” value in test [3] (confluent cultures) is on record as “suppresses”. The “increase of cellular secretions of MCP-1” value in test [4] is 119 fold. Also, in the test on dendritic cells, the “expression of SEQ ID NO:96” value was “greater than two-fold expression”.
Turning to `C[C@H]1C[C@H]2[C@@H]3CCC4=CC(=O)C=C[C@]4(C)[C@@]3(Cl)[C@@H](O)C[C@]2(C)[C@@]1(O)C(=O)CO` [beclomethasone, Beclomethasone], the “anti-inflammatory and vasoconstrictive effects relative to hydrocortisone” value in test [5] is given as 5000 times.
